Two molecules from US20230129258A1, “HETEROTANDEM BICYCLIC PEPTIDE COMPLEXES” (BicycleTx Limited, priority 2019, published 2023) can be followed below.

Values joined by “and” are separate entries in the source; they are usually repeats but may differ in a detail not shown here. Equal entries are not always repeated. “Also recorded” adds a separate entry of the source. Where two headings read alike, the source gives them in different places. Starred links: 1 amine or outer side, 2 acyl side, 3 side chain; linkers in the order of their positions; H or OH if unused. Positions of bridges follow the written chain, without caps; N, C: chain ends. Non-standard residues stand in square brackets, D forms with d. Chains are numbered I, II in the order given. X1 = O=C(CCOCCOCCOCCN(CCOCCOCCOCCn1cc(CCC(=O)[*:2])nn1)CCOCCOCCOCCn1cc(CCC(=O)[*:3])nn1)[*:1]; TATA = O=C(CC[*:1])N1CN(C(=O)CC[*:2])CN(C(=O)CC[*:3])C1; d1Nal = N[C@H](Cc1cccc2ccccc12)C(=O)O; Hyp = O=C(O)[C@@H]1C[C@@H](O)CN1; hArg = N=C(N)NCCCC[C@H](N)C(=O)O; tBuAla = CC(C)(C)C[C@H](N)C(=O)O; Nle = CCCC[C@H](N)C(=O)O

The target in one series is cyno Nectin-4. Briefly: SPR direct binding to biotinylated Nectin-4 extracellular domain, cyno. The source says:
(§1) The binding of BCY11863 to its primary target Nectin-4 and CD137 was characterized using surface plasmon resonance (SPR).

Series [1] can be described thus: Pharmacokinetic profiles in plasma and tumor tissue of CT26 #7 tumor bearing animals. It counts as in vivo, BALB/c mice. As to conditions: female, BALB/c, mouse, single iv 5 mg/kg. The method, then: 6-8 weeks old BALB/c female mice were inoculated in the flank with 3×10^5 syngeneic Nectin-4 overexpressing CT26 cells (CT26 #7). When tumors reached around 400 mm^3 size on average, mice were randomized to receive a single intravenous dose of vehicle or 5 mg/kg BCY11863. A cohort of mice (n=3/timepoint) were sacrificed at 0.25, 0.5, 1, 2, 4, 8 and 24 h timepoints and harvested plasma and tumor tissue were analyzed for BCY11863. For tumor BCY11863 content analysis, tumor homogenate was prepared by homogenizing tumor tissue with 10 volumes (w:v) of homogenizing solution (MeOH/15 mM PBS (1:2, v:v)). 40 μL of sample was quenched with 200 μL IS1 and the mixture was mixed by vortexing for 10 min at 800 rpm and centrifuged for 15 min at 3220 g at 4° C. The supernatant was transfer to another clean 96-well plate and centrifuged for 5 min at 3220 g at 4° C., and 10.0 μL of supernatant was then injected for LC-MS/MS analysis using an Orbitrap Q Exactive in positive ion mode to determine the concentrations of analyte. For plasma BCY11863 content analysis, blood samples were collected in K2-EDTA tubes and immediately processed to plasma by centrifugation at approximately 4° C., 3000 g. 40 μL of plasma sample was quenched with 200 μL IS1 and the mixture was mixed by vortexing for 10 min at 800 rpm and centrifuged for 15 min at 3220 g at 4° C. […]

For another series, the target named is T1, human Nectin-4 (Homo sapiens, UniProt Q96NY8).
T1 sequence (Q96NY8 32-349 limits assumed): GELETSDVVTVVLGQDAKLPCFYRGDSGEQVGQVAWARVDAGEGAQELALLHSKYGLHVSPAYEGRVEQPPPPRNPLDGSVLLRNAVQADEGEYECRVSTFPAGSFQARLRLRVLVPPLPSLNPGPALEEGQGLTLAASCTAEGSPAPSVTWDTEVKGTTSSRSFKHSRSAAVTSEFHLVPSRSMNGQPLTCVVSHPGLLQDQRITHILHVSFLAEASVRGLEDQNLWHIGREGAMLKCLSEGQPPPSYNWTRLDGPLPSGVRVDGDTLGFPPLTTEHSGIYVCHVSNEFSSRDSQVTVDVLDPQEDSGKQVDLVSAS
Briefly: SPR direct binding to biotinylated Nectin-4 extracellular domain, human.
Description: as §1

For another series, the system named is MC38 #13 tumors. Briefly: Re-inoculation of complete responders with MC38 #13 cells (immunogenic memory). It counts as in vivo, C57BL/6J-hCD137 mice. The settings on record: re-inoculated day 69 with 1x10^6 MC38 #13 cells; 22 days observation. The source says:
On day 69, 5 animals that had responded completely to BCY11863 treatment were re-inoculated with 1×10^6 MC38 #13-cells. A cohort of 5 naïve C57BL/6J-hCD137 female mice were inoculated with 1×10^6 MC38 #13-cells as a control.

The next series has as its system human PBMCs. The series can be described thus: Human PBMC co-culture cytokine secretion assay with EphA2-expressing tumor cells (MC38, HT-1080, HT29). It is filed as cell-based. The settings on record: anti-CD3, 48 h, read-out: EC50 of IL-2 cytokine secretion.

For orientation: Kd means the equilibrium constant for the complex coming apart. For orientation: EC50 means the concentration at which the effect is half-maximal.

In the case of `CCCC[C@@H]1NC(=O)[C@H](Cc2ccc(O)cc2)NC(=O)[C@@H]2CCCN2C(=O)[C@H](CC(=O)O)NC(=O)[C@H](C)NC(=O)[C@H](Cc2ccccc2)NC(=O)[C@@H]2CSCCC(=O)N3CN(CN(C3)C(=O)CCSC[C@@H](C(=O)N[C@@H](C)C(N)=O)NC1=O)C(=O)CCSC[C@H](NC(C)=O)C(=O)N[C@@H](CC(C)(C)C)C(=O)N1CCC[C@H]1C(=O)N[C@@H](CCC(=O)O)C(=O)N[C@H](CCCCNC(=O)CCc1cn(CCOCCOCCOCCN(CCOCCOCCOCCC(=O)N[C@H]3CSCCC(=O)N4CN5CN(C4)C(=O)CCSC[C@H](NC(=O)[C@@H](CC(=O)O)NC(=O)[C@H](Cc4cccc6ccccc46)NC(=O)[C@@H]4CCCN4C3=O)C(=O)N[C@@H](CCSC)C(=O)N[C@@H](CCCCNC(=N)N)C(=O)N[C@@H](CC(=O)O)C(=O)N[C@@H](Cc3c[nH]c4ccccc34)C(=O)N[C@@H](CO)C(=O)N[C@@H]([C@@H](C)O)C(=O)N3CCC[C@H]3C(=O)N3C[C@H](O)C[C@H]3C(=O)N[C@@H](Cc3c[nH]c4ccccc34)C(=O)N[C@H](C(N)=O)CSCCC5=O)CCOCCOCCOCCn3cc(CCC(=O)NCCCC[C@H]4NC(=O)[C@H](CCC(=O)O)NC(=O)[C@@H]5CCCN5C(=O)[C@H](CC(C)(C)C)NC(=O)[C@@H](NC(C)=O)CSCCC(=O)N5CN6CN(C5)C(=O)CCSC[C@H](NC(=O)[C@H](Cc5ccc(O)cc5)NC(=O)[C@@H]5CCCN5C4=O)C(=O)N[C@@H](Cc4ccccc4)C(=O)N[C@@H](C)C(=O)N[C@@H](CC(=O)O)C(=O)N4CCC[C@H]4C(=O)N[C@@H](Cc4ccc(O)cc4)C(=O)N[C@@H](CCCC)C(=O)N[C@H](C(=O)N[C@@H](C)C(N)=O)CSCCC6=O)nn3)nn1)C(=O)N1CCC[C@H]1C(=O)N[C@@H](Cc1ccc(O)cc1)C(=O)N2` [BCY11863], the Kd at cyno Nectin-4 (Direct Binding, biotinylated Nectin-4 extracellular domain, 25° C., read-out: SPR KD NHP (25° C.)) was 27 ± 15 nM; on cyno Nectin-4 (biotinylated ECD captured on streptavidin chip, read-out: KD) it was 5 to 27 nM; at human Nectin-4 (KD, biotinylated ECD captured on streptavidin chip) it was 5 to 27 nM and 4.1 nM; at human Nectin-4 (SPR KD Human (25° C.), Direct Binding, biotinylated Nectin-4 extracellular domain, 25° C.), 5 ± 2.1 nM; at human Nectin-4 (SPR KD Human (37° C.), Direct Binding, biotinylated Nectin-4 extracellular domain, 37° C.), 5.2 ± 1.1 nM. Also, the half-life in series [1] (plasma, read-out: plasma T1/2 (converted)) is 99 min; in series [1] (tumor tissue, read-out: tumor T1/2 (converted)) it was 804 min. Also, in the series on MC38 #13 tumors, the “tumor development after re-inoculation of complete responders” value was “none of the CR mice developed tumors; also recorded: none of the inoculated complete responder mice developed tumors”.
Regarding “I: A[hArg]DC[Hyp]LVNPLCLEP[d1Nal]WTC-NH2 / II: Ac-C[tBuAla]PE[dK]PYCFADPY[Nle]CA-NH2 / III: Ac-C[tBuAla]PE[dK]PYCFADPY[Nle]CA-NH2 (linker I:4-I:11-I:18, II:1-II:8-II:15, III:1-III:8-III:15 via TATA; linker I:N-II:5-III:5 via X1) [BCY13272]”, the EC50 stood at 0.55 ± 0.47 nM in the series on human PBMCs (human PBMC-HT-1080 co-culture) and 0.79 ± 0.24 nM in the series on human PBMCs (human PBMC-MC38 co-culture).
